Series [1] deals with human breast cancer cell line MX-1. The series can be described thus: In vivo antitumor test, human tumor xenograft MX-1. Set-up: species or system athymic (nude) mice. Particulars: no MoAb, iv, three injections starting on day 2, day 42 post-implantation. On the technique in general: In xenograft studies the graft and the host belong to different species.
Series [2] has as its system human Burkitt lymphoma cell line Raji TC. The series is described as follows: In vivo antitumor test, human tumor xenograft Raji. Set-up: species or system athymic (nude) mice. Particulars: no MoAb, iv, three injections starting on day 7, day 35 post-implantation.
The subject of series [3] is lymphocytic leukemia P388. The series can be described thus: Lymphocytic Leukemia P388 Test. Particulars: for T/Cx100 %: survival time treated/control. The series is classed as in vivo, BDF1 female mice. The source says:
These have been reported in "Cancer Chemotherapy Reports", Part III, Vol. 3, No. 2 (1972), Geran, et. al. These protocols have established standardized screening tests which are generally followed in the field of testing for antitumor agents. Of these systems, lymphocytic leukemia P388, melanotic melanoma B16, L1210 leukemia and colon 26 adenocarcinoma are particularly significant to the present invention. These neoplasms are utilized for testing as transplantable tumors in mice.
The animals used were BDF1 female mice. There were 5 or 6 mice per test group. The tumor transplant was by intraperitoneal injection of 0.5 ml of dilute ascitic fluid containing 1 x 10^6 cells of lymphocytic leukemia P388 on day zero. The test compounds were administered intraperitoneally at a volume of 0.5 ml in sterile, pyrogen free saline on days 1, 5 and 9 (relative to tumor inoculation) at the indicated doses. The mice were weighed and survivors recorded on a regular basis for 30 days. The median survival time and the ratio of survival time for treated (T)/control (C) animals were calculated. Values of T/C greater than or equal to 125 are considered to reflect significant antitumor activity.

Series [4] has as its system human colon cancer cell line LS174T. The series is described as follows: In vivo antitumor test, human tumor xenograft LS174T. Set-up: species or system athymic (nude) mice. The conditions noted are these: no MoAb, iv, three injections started on day 8, day 21 post-implantation.
The mark [5] stands for this setting: dose 0.020 mg/kg intraperitoneally on days 1, 5 and 9.
[6] abbreviates: dose 0.040 mg/kg intraperitoneally on days 1, 5 and 9.
[7] abbreviates: dose 0.080 mg/kg intraperitoneally on days 1, 5 and 9.
[8] abbreviates: dose 0.0025 mg/kg intraperitoneally on days 1, 5 and 9.
The mark [9] stands for this setting: dose 0.005 mg/kg intraperitoneally on days 1, 5 and 9.
The mark [10] stands for this setting: dose 0.0003 mg/kg intraperitoneally on days 1, 5 and 9.
[11] abbreviates: dose 0.0006 mg/kg intraperitoneally on days 1, 5 and 9.
Where [12] appears, read: dose 0.00125 mg/kg intraperitoneally on days 1, 5 and 9.
Setting [13] is: dose 0.010 mg/kg intraperitoneally on days 1, 5 and 9.

Consider “Hydrazide of 3-mercaptopropionic acid disulfide of N-acetyl LL-E33288δ1^I [Hydrazide alone]”, for which the S/T is reported as 3/6 in series [1] (Drug 2.0 mcg) and 6/6 in series [2] (Drug 1.0 mcg). Besides, the “Tumor Size (T/C)%control” value is 71 %control in series [1] (Drug 2.0 mcg) and 517 %control in series [2] (Drug 1.0 mcg).
For the compound “3-Mercaptopropionyl hydrazide disulfide of N-acetyl LL-E33288γ1^I”, the figures for the “Median Survival” value in series [3] (setting [5]), in series [3] (setting [6]) and in series [3] (setting [7]) were 15.0 days, 18.0 days and 21.0 days, respectively. The T/Cx100 % is reported as 125% in series [3] (setting [5]), 150% in series [3] (setting [6]) and 175% in series [3] (setting [7]).
With “3-Mercaptopropionic Acid Disulfide of LL-E33288γ1^I”, the T/Cx100 % in series [3] (setting [8]) was found to be 125%; in series [3] (setting [9]) it was 145%.
With “3-Mercaptoisovaleryl hydrazide disulfide of LL-E33288q1-I”, the “Median Survival” value worked out at 14.0 days in series [3] (setting [10]); 13.0 days in series [3] (setting [11]); 16.0 days in series [3] (setting [12]); 17.0 days in series [3] (setting [8]); 18.0 days in series [3] (setting [9]); 26.5 days in series [3] (setting [13]). For the same compound, the T/Cx100 % in series [3] (setting [10]) is 133%; in series [3] (setting [11]), 124%; in series [3] (setting [12]), 152%; in series [3] (setting [8]) it was 162%; in series [3] (setting [9]), 171%; in series [3] (setting [13]), 252%.
On to “3-Mercaptobutyryl hydrazide disulfide of LL-E33288γ1-I”, for which the “Median Survival” value in series [3] (setting [11]) was found to be 19.5 days; in series [3] (setting [12]), 21.0 days; in series [3] (setting [8]), 23.0 days; in series [3] (setting [9]), 28.5 days. The T/Cx100 % in series [3] (setting [11]) was found to be 130%; in series [3] (setting [12]), 140%; in series [3] (setting [8]), 153%; in series [3] (setting [9]), 190%.
On to “N-acetyl LL-E33288δ1^I [reference compound]”, for which the S/T is listed as 2/6 in series [1] (Drug 1.0 mcg), 6/6 in series [2] (Drug 0.5 mcg) and 1/6 in series [4] (Drug 2.0 mcg). Besides, the “Tumor Size (T/C)%control” value in series [1] (Drug 1.0 mcg) is recorded as 46 %control; in series [2] (Drug 0.5 mcg) it was 226 %control; in series [4] (Drug 2.0 mcg), 32 %control.
Turning to `CC[C@]1(O)C[C@H]2CN(CCc3c([nH]c4ccccc34)[C@@](C(=O)OC)(c3cc4c(cc3OC)N(C=O)[C@H]3[C@@](O)(C(=O)OC)[C@H](OC(C)=O)[C@]5(CC)C=CCN6CC[C@]43[C@@H]65)C2)C1` [Vincristine], in series [4] (Drug 20 mcg), the S/T is 6/6 and the “Tumor Size (T/C)%control” value is reported as 23 %control.
As for “3-Mercaptopropionyl hydrazide disulfide of LL-E33288α2-I”, the “Median Survival” value in series [3] (setting [12]) was 18.5 days; in series [3] (setting [8]), 18.5 days; in series [3] (setting [9]), 21.0 days; in series [3] (setting [13]) it was 26.5 days. In addition, the T/Cx100 % in series [3] (setting [12]) came out at 161%; in series [3] (setting [8]), 161%; in series [3] (setting [9]), 183%; in series [3] (setting [13]) it was 230%.

Values taken from patent EP0392384B1, “Targeted forms of methyltrithio antitumor agents” (AMERICAN CYANAMID COMPANY, priority 1989, dated 1990).
